Measured values taken from PubChem BioAssay AID248 (DTP/NCI, 2004).
Toxic doses and inconclusive results are not listed. Rule as the data show it: active = T/C of 150% or more; inactive = T/C below 125%.

Tested on: L1210 leukemia ip in BDF1 mice, survival T/C
Assay: NCI In Vivo Anticancer Drug Screen. Data for tumor model L1210 Leukemia (intraperitoneal) in B6D2F1 (BDF1) mice
Settings: endpoint: mean survival time, higher = longer survival
Outline: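 Mice bearing the transplanted tumor received compound or vehicle. Survival of the treated group was divided by that of the vehicle-treated control group to give the ratio.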

[1] = dose: 100.0 mg/kg/injection, schedule: Q01DX009 (ip), vehicle: Klucel (hydroxypropylcellulose) (HPC)
[2] = dose: 100.0 mg/kg/injection, schedule: Q04DX003 (ip), vehicle: Klucel (hydroxypropylcellulose) (HPC)
[3] = dose: 200.0 mg/kg/injection, schedule: Q01DX009 (ip), vehicle: Klucel (hydroxypropylcellulose) (HPC)
[4] = dose: 200.0 mg/kg/injection, schedule: Q04DX003 (ip), vehicle: Klucel (hydroxypropylcellulose) (HPC)
[5] = dose: 400.0 mg/kg/injection, schedule: Q01DX009 (ip), vehicle: Klucel (hydroxypropylcellulose) (HPC)
[6] = dose: 400.0 mg/kg/injection, schedule: Q04DX003 (ip), vehicle: Klucel (hydroxypropylcellulose) (HPC)
[7] = dose: 200.0 mg/kg/injection, schedule: Q01DX009 (ip), vehicle: saline with Tween-80
[8] = dose: 50.0 mg/kg/injection, schedule: Q01DX009 (ip), vehicle: Klucel (hydroxypropylcellulose) (HPC)
[9] = dose: 100.0 mg/kg/injection, schedule: Q01DX001 (ip), vehicle: saline with Tween-80
[10] = dose: 200.0 mg/kg/injection, schedule: Q01DX001 (ip), vehicle: saline with Tween-80
[11] = dose: 400.0 mg/kg/injection, schedule: Q01DX001 (ip), vehicle: saline with Tween-80
[12] = dose: 100.0 mg/kg/injection, schedule: Q04DX003 (ip), vehicle: saline with Tween-80
[13] = dose: 200.0 mg/kg/injection, schedule: Q04DX003 (ip), vehicle: saline with Tween-80
[14] = dose: 400.0 mg/kg/injection, schedule: Q04DX003 (ip), vehicle: saline with Tween-80

Measured: T/C

CSc1ccc(NC(=O)Nc2cc(C)cc(C)n2)cc1
inactive: [1] 94 % of control | [2] 98 % of control | [3] 94 % of control | [4] 103 % of control | [5] 87 % of control | [6] 98 % of control

O=[N+]([O-])c1ccc(N/N=C2\C3CC(c4ccccc4)C2C(c2ccccc2)=C3c2ccccc2)c([N+](=O)[O-])c1 (stereo unspecified)
inactive: dose: 12.5 mg/kg/injection, schedule: Q01DX009 (ip), vehicle: saline with Tween-80 91 % of control | dose: 25.0 mg/kg/injection, schedule: Q01DX009 (ip), vehicle: saline with Tween-80 88 % of control | dose: 50.0 mg/kg/injection, schedule: Q01DX009 (ip), vehicle: saline with Tween-80 96 % of control | [7] 89 % of control

CC(=O)Oc1c(Br)c(-c2c(C)c(Br)c(C)c(Br)c2C)c(OC(C)=O)c(Br)c1-c1c(C)c(Br)c(C)c(Br)c1C
inactive: [1] 95 % of control | [3] 100 % of control | [5] 95 % of control

C=C1CCCC(O)CCC1
inactive: dose: 75.0 mg/kg/injection, schedule: Q01DX001 (ip), vehicle: other 102 % of control | dose: 150.0 mg/kg/injection, schedule: Q01DX001 (ip), vehicle: other 98 % of control | dose: 300.0 mg/kg/injection, schedule: Q01DX001 (ip), vehicle: other 96 % of control

Clc1c(Cl)c(CBr)c(Cl)c(CBr)c1Cl
inactive: [8] 104 % of control | [2] 103 % of control | [4] 109 % of control

NC(N)=N/N=C/c1c[nH]c2ccc(OCc3ccccc3)cc12
inactive: dose: 15.0 mg/kg/injection, schedule: Q01DX Z (ip), vehicle: methylcellulose (MC) 94 % of control | dose: 15.0 mg/kg/injection, schedule: Q01DX Z (oral), vehicle: methylcellulose (MC) 90 % of control | dose: 30.0 mg/kg/injection, schedule: Q01DX Z (ip), vehicle: methylcellulose (MC) 96 % of control | dose: 30.0 mg/kg/injection, schedule: Q01DX Z (oral), vehicle: methylcellulose (MC) 87 % of control

CSc1ccc(/C=N/NC(N)=S)cc1
inactive: [1] 103 % of control | [2] 106 % of control | [3] 92 % of control | [4] 106 % of control | [6] 108 % of control

Nc1ccc(CCc2ccc(Cl)cc2S(=O)(=O)F)c(Cl)c1
inactive: dose: 100.0 mg/kg/injection, schedule: Q01DX009 (ip), vehicle: saline sonified 97 % of control | dose: 100.0 mg/kg/injection, schedule: Q04DX003 (ip), vehicle: saline sonified 100 % of control | dose: 200.0 mg/kg/injection, schedule: Q01DX009 (ip), vehicle: saline sonified 92 % of control | dose: 200.0 mg/kg/injection, schedule: Q04DX003 (ip), vehicle: saline sonified 100 % of control | dose: 400.0 mg/kg/injection, schedule: Q01DX009 (ip), vehicle: saline sonified 98 % of control | dose: 400.0 mg/kg/injection, schedule: Q04DX003 (ip), vehicle: saline sonified 96 % of control

O=c1cc2ccccc2c(O)[nH]1
inactive: dose: 25.0 mg/kg/injection, schedule: Q01DX001 (ip), vehicle: saline 107 % of control | dose: 50.0 mg/kg/injection, schedule: Q01DX001 (ip), vehicle: saline 111 % of control | dose: 100.0 mg/kg/injection, schedule: Q01DX001 (ip), vehicle: Klucel (hydroxypropylcellulose) (HPC) 100 % of control | dose: 100.0 mg/kg/injection, schedule: Q01DX001 (ip), vehicle: saline 114 % of control

CCNc1ccccc1-c1nc2ccccc2[nH]1
inactive: [8] 93 % of control | [1] 100 % of control | [3] 102 % of control

O=c1ccc2cc3ccc(=O)oc3cc2o1
inactive: [9] 97 % of control | [10] 97 % of control | [11] 87 % of control

COc1ccc(NC(=O)Nc2c(C)cc(C)cc2C)cc1
inactive: dose: 100.0 mg/kg/injection, schedule: Q01DX009 (ip), vehicle: gum acacia 94 % of control | dose: 100.0 mg/kg/injection, schedule: Q04DX003 (ip), vehicle: gum acacia 93 % of control | dose: 200.0 mg/kg/injection, schedule: Q01DX009 (ip), vehicle: gum acacia 96 % of control | dose: 200.0 mg/kg/injection, schedule: Q04DX003 (ip), vehicle: gum acacia 95 % of control | dose: 400.0 mg/kg/injection, schedule: Q01DX009 (ip), vehicle: gum acacia 98 % of control | dose: 400.0 mg/kg/injection, schedule: Q04DX003 (ip), vehicle: gum acacia 87 % of control

CC1CCc2[nH]c3ccc4ccccc4c3c2C1 (stereo unspecified)
inactive: dose: 25.0 mg/kg/injection, schedule: Q04DX003 (ip), vehicle: Klucel (hydroxypropylcellulose) (HPC) 98 % of control | dose: 50.0 mg/kg/injection, schedule: Q04DX003 (ip), vehicle: Klucel (hydroxypropylcellulose) (HPC) 95 % of control | [2] 93 % of control

Cc1ccc(Cl)cc1NC(=O)c1c(Br)c(Br)c(Br)c(Br)c1C(=O)O
inactive: dose: 100.0 mg/kg/injection, schedule: Q01DX009 (ip), vehicle: saline with Tween-80 105 % of control | [12] 97 % of control | [7] 105 % of control | [13] 101 % of control | dose: 400.0 mg/kg/injection, schedule: Q01DX009 (ip), vehicle: saline with Tween-80 113 % of control | [14] 101 % of control

CCOC(=O)C1C(O)=C(P(=O)(C2=C(O)C(C(=O)OCC)C(c3ccc(OC(C)=O)cc3)C(C(=O)O)C2=O)N(CCCl)CCCl)C(=O)C(C(=O)O)C1c1ccc(OC(C)=O)cc1 (stereo unspecified)
inactive: [1] 97 % of control | [2] 98 % of control | [3] 102 % of control | [4] 98 % of control | [5] 102 % of control | [6] 108 % of control

CCOC(=O)/C=C(\C)Nc1ncc(Br)cc1Br
inactive: [9] 92 % of control | [10] 96 % of control | [11] 89 % of control

C=CS(=O)(=O)c1ccccc1
inactive: dose: 18.0 mg/kg/injection, schedule: Q04DX003 (ip), vehicle: saline with Tween-80 102 % of control | dose: 25.0 mg/kg/injection, schedule: Q01DX009 (ip), vehicle: Klucel (hydroxypropylcellulose) (HPC) 91 % of control | dose: 36.0 mg/kg/injection, schedule: Q04DX003 (ip), vehicle: saline with Tween-80 104 % of control | [8] 91 % of control | dose: 72.0 mg/kg/injection, schedule: Q04DX003 (ip), vehicle: saline with Tween-80 98 % of control | [1] 94 % of control | [12] 97 % of control | [13] 92 % of control | [14] 95 % of control

C[n+]1c(/C=C/c2ccc(O)c3ncccc23)[se]c2ccccc21
inactive: dose: 100.0 mg/kg/injection, schedule: Q01DX001 (ip), vehicle: carboxymethylcellulose (CMC) 95 % of control | dose: 100.0 mg/kg/injection, schedule: Q04DX003 (ip), vehicle: saline 108 % of control | dose: 200.0 mg/kg/injection, schedule: Q01DX001 (ip), vehicle: carboxymethylcellulose (CMC) 100 % of control | dose: 200.0 mg/kg/injection, schedule: Q04DX003 (ip), vehicle: saline 110 % of control | dose: 400.0 mg/kg/injection, schedule: Q01DX001 (ip), vehicle: carboxymethylcellulose (CMC) 105 % of control | dose: 400.0 mg/kg/injection, schedule: Q04DX003 (ip), vehicle: saline 105 % of control

COc1ccc(OC(=O)OCc2ccccc2)cc1
inactive: [2] 101 % of control | [4] 101 % of control | [6] 109 % of control
